Experimental data as given in patent US8138338B2, “Aurora kinase inhibitors from an encoded small molecule library” (GlaxoSmithKline LLC, priority 2006, dated 2012).

system: HCT116 (human colorectal cancer cells); test: Cell proliferation assay (MTT) using HCT-116 cell line; type: cell-based; conditions: 72 h, human carcinoma cell line HCT-116, three days
Procedure: Cell proliferation assay for Aurora-A compounds using HCT-116 Cell Line HCT116 (human colorectal cancer cells) was obtained from the American Type Culture Collection (Cat. No. CCL-247, Rockville, Md.). Cells were maintained in monolayer culture in McCoy's 5A supplemented with 10% fetal bovine serum (FBS; Omega Scientific, Tarzana, Calif.), 2 mM L-glutamine, 50 IU/ml penicillin and 50 μg/ml streptomycin (Gibco/Invitrogen, Carlsbad, Calif.) in a humidified incubator with 95% air and 5% CO2 at 37° C.
A single cell suspension was prepared by trypsinization, to provide 1.25E4 cells per mL in their respective culture medium. 96 well plates were seeded with 200 μl/well of the cell suspension to provide an initial seeding density of 2500 cells per well. The plates were placed in a tissue culture incubator (5% CO2, 37° C.) overnight to let cells become adherent.
Serial dilutions of the testing compounds were prepared at final concentrations in culture medium from a 10 mM stock solution, and assayed in triplicate. The vehicle was prepared by adjusting culture medium to 0.1% v/v DMSO which corresponds to the concentration of DMSO in the wells with test compounds. Test plates were then placed in a tissue culture incubator (5% CO2, 37° C.) for three days after which the MTT assay was performed.
The MTT assay is a measure of cell viability based on cellular dehydrogenase enzymatic cleavage of the tetrazolium rings in MTT the product of which is measured spectrophotometrically. A 25 μL aliquot of 5 mg/mL MTT (3′[4,5-dimethylthiazol-2-yl]-2,5-diphenyl-tetrazolium bromide, Sigma Cat. No. M2128) prepared in PBS was added directly to the wells. The plates were incubated at 37° C. for two hours, the MTT solution was removed, 150 μL of isopropanol was added to each well, and the plates were rocked at room temperature for 10 minutes. The optical density of the wells was quantitated with a Labsystems Multiskan plate spectrophotometer at 570 nm. Replicate readings were averaged. The results are expressed as a percent of OD signal from control.

| EC50 [µM] | SMILES |
| --- | --- |
| 3.6 | CCCCN(C)c1nc(NCCc2ccccc2OC)nc(NC(Cc2c[nH]c3ncccc23)C(N)=O)n1 (stereo not shown) [Compound 1] |
| 3.6 | CCCCN(C)c1nc(NCCc2ccccc2OC)nc(NCCc2c[nH]c3ncccc23)n1 [Compound 2] |
| 10 | C=CCN(c1nc(NCCc2c[nH]c3ncccc23)nc(NCc2cccn2C)n1)C1CCCCC1 [Compound 3] |
| 10 | COc1ccc(Nc2nc(Nc3ccc4ncccc4c3)nc(NC(Cc3c[nH]c4ncccc34)C(N)=O)n2)cc1OC (stereo not shown) [Compound 7] |

system: secretion of TNF-α from LPS-stimulated human monocytes; test: LPS-induced TNF-alpha production in human THP-1 cell line; type: cell-based; conditions: LPS-stimulated human monocytes (THP-1), 4 hr; read-out: EC50 for inhibition of TNF-α secretion
Procedure: THP-1 (human, monocytic) cell line was purchased from the American Type Culture Collection (ATCC, Cat. No. TIB 202). Cell line was passaged three times per week in RPMI 1640 (GIBCO), supplemented with 10% heat-inactivated fetal bovine serum (FBS; Omega Scientific, Tarzana, Calif.), 2 mM L-glutamine, 100 U/ml penicillin and 100 μg/ml streptomycin (Gibco/Invitrogen, Carlsbad, Calif.) in a humidified incubator with 95% air and 5% CO2 at 37° C.
For the assay THP-1 cells were harvested, counted and suspended at 1E6 cells/ml in culture medium. […] of cell suspension was added to each well at 96 well plates to provide density of 2×10^5 cells per well. Serial dilutions of P38 compounds were prepared at final concentrations in culture medium from a 10 mM stock solution, and assayed in triplicate. Vehicle was prepared by adjusting culture medium to 0.1% v/v DMSO which corresponds to the concentration of DMSO in the wells with test compounds.
Cells were incubated in presence of the P38 inhibitor for 30 min. After that cells were stimulated with LPS (E. coli 026:B6, 1 μg/ml) for 4 hr at 37° C. in a 5% CO2-incubator. Reaction was stopped by placing samples on ice and centrifuging for 10 min at 1500×g at 4° C. Cell supernatants were harvested and concentration of TNF- was determined by ELISA (BD Pharmingen, San Diego, Calif., Cat. No. 555212), following the manufacturer's instruction. Absorbance read and analyzed at 450 nm on a spectrophotometric ELISA plate reader (Labsystems Multiskan MCC/340). Replicate readings were averaged and the results are expressed as a percent of OD signal from control.

| EC50 [µM] | SMILES |
| --- | --- |
| 0.022 | CONC(=O)c1ccc(C)c(Nc2nc(NCC3CCCC(CN)C3)nc(NC3CCCCC3C)n2)c1 (stereo not shown) [Compound 10] |
| 0.011 | CONC(=O)c1ccc(C)c(Nc2nc(NCC3CCCC(CN)C3)nc(NC3CCCCC3)n2)c1 (stereo not shown) [Compound 11] |
| 0.122 | CONC(=O)c1ccc(C)c(Nc2nc(NCc3cccc(C)c3)nc(N[C@H](C)C(C)(C)C)n2)c1 [Compound 12] |
